Values joined by “and” are separate entries in the source; they are usually repeats but may differ in a detail not shown here. Equal values may be shown once. Where no end group is shown, it is not given here.
Tests used:
[1] = system: Escherichia coli strain DB3.1; experiment: agar diffusion assay (zone of inhibition); assay type: cell-based
Procedure: Agar diffusion assay. In the agar diffusion assay the microorganisms were exposed immovable to the potential bio-active substance by inclusion in an agar containing medium. The use of a nutrient limited minimal medium led first to a limitation of the development of the bacteria. The test substances were dependent on the application form pipetted into the punched recess in the agar or placed with a test sample into the punched recess in the agar and spread out during incubation time by diffusion into the agar. After incubation the nutrient limitation of the bacteria was revoked. The determination of the bioactivity was performed by measuring the diameter of the raised zone of inhibition surrounding the recess.
Therefore, Escherichia coli strain DB3.1 (Invitrogen, Cat. No. 11782-018) was used. E. coli was streaked from a glycerol stock onto a Brain Heart Infusion (BHI) agar plate (3.7% (w/v) BHI Bouillon, 1.5% (w/v) Agar) and was grown overnight at 37° C. Subsequently one colony was used to inoculate 8 ml of TSB medium (Caso Bouillon 3% (w/v)) without any antibiotics in a culture tube which was then incubated shaking (120 rpm) over night at 37° C. 50 μl of this pre-culture was used to inoculate again 8 ml of TSB medium (Caso Bouillon 3% (w/v)) without any antibiotics in a fresh culture tube which was then incubated shaking (125 rpm) for 3.5 h at 37° C. The OD600 of the bacterial suspension was then 0.500.
The underlay medium (11% (v/v) 0.1 M sodium phosphate buffer pH 7.2, 1% (v/v) TSB-medium, 0.02% (v/v) Tween, 1% (w/v) agarose in distilled water, pH 7.2), a minimal medium, was liquefied using micro waves and cooled to about 47° C. 10 ml underlay medium with 500 μl bacterial suspension were mixed in a 50 ml falcon tube by slight swirling and then was poured into a petri dish. The cooling time was first 15 min at room temperature and then 30 min at 4° C. Afterwards the recesses for test liquids (diameter 3 mm) and test materials (diameter 6 mm), respectively, were punched out from the underlay medium by using a punching-dye. 5 μl test liquid was pipetted per recess and the test materials were laid into the recess or were slid under the underlay medium, respectively. The lid of the plate was closed by parafilm and the plate was incubated over night at 37° C. The next day, the overlay medium (3.4% (w/v) casein peptone, 0.6% (w/v) soy flour peptone, 0.5% (w/v) di-potassium hydrogen phosphate, 1% (w/v) NaCl, 0.5% (w/v) glucose, 1% (w/v) agarose in distilled water) was liquefied using micro waves and cooled to about 47° C. In every Petri dish 10 ml overlay medium were poured on the underlay medium. After cooling for 5 minutes the plate was closed by the lid and incubated at 37° C. for about 2-3 h. For evaluation, the diameter of the raised zones of inhibition surrounding the recesses was measured.
The potential of the chosen biopolymers to release bio-active hβD2 after coating/mixing them with hβD2, was determined by a screening in the diffusion assay (as described in Example 5). The assay allows a correlation between the released amounts of bio-active molecules and the resulting zone of inhibition surrounding the releasing source. A comparison with the effect of directly applied, defined amounts of hβD2 allows an evaluation of the release potential of the test materials.
In the assay films made of 1% hyaluronic acid and 1% alginic acid, gelatin leaves, gelatinized agarose drops of 1% agarose solution and films of the dried drops were used. Additionally three variants of a polylactide matrix (uncoated, coated with collagen, coated with collagen and chondroitin sulphate) and collagen scaffolds were tested.
The samples were prepared as described in example 5 and treated with 10 μg hβD2. For the comparison between the effect of directly applied hβD2 amounts and the effect of hβD2-coated samples a standard series for 0.1, 1, 5 and 10 μg hβD2 was performed. The control was formed by the 0.01% acetic acid. […]

[2] = system: Escherichia coli strain DB3.1; experiment: microdilution assay of hβD2 coated biopolymers (percentage killing); assay type: cell-based
Procedure: Microdilution assay. In the microdilution assay the microorganisms were exposed to a potential bio-active substance in liquid surrounding, thus free to move. This potential bio-active substance was either homogenously dispersed in the liquid surrounding by active mixing at the beginning of the tests or could spread out of the sample during incubation time. The bioactivity was measured in percentage killing, wherein the number of colony forming units (CFU) in a control without test substance was set to 0% killing and a reduction in the cell number to zero was set to 100% killing.
Fresh cells were harvested by centrifugation at 1600 rpm for 10 min, the supernatant was removed and the cell pellet was resuspended in 5 ml 10 mM sodium phosphate buffer. This procedure was repeated twice. The optical density was adjusted to OD600 of 0.500 with 10 mM sodium phosphate buffer. 100 μl of the bacterial suspension was pipetted in one well of a microtiter plate without optimized surface. 10 μl test substance or test sample was added. In case of a test substance, the mixture was homogenized by absorbing the mixture several times with a pipette. The microtiter plate is then closed with parafilm and incubated at 37° C. for 2 h. After incubation the substances in the wells were mixed by a pipette. […] For evaluation, the grown colonies were counted.
The microdilution assay facilitates the examination of the hβD2 release kinetics of the biopolymers and thus allowed conclusions on what amounts of hβD2 in which time could be released. For comparing on evaluation of the assay the effect of directly applied hβD2 amounts with the effect of hβD2 amounts applied on biopolymers, the achieved percentage killing of bacteria was compared to the killing rate of the hβD2 standard series in the microdilution assays.
The collagen scaffolds and polylactide matrices were examined in the microdilution assay regarding their hβD2 release kinetics. Since the incubation time of the samples in the bacterial suspension is limited, the samples were stored at −25° C. after the test and until completion of a further assay. The thawed samples were then used in a new assay and were incubated again.

human β-defensin-2 (GIGDPVTCLKSGAICHPVFCPRRYKQIGTCGLPGTKCCKKP; ends and bridges not checked; cysteine pairing not given here) [hβD2, recombinant hβD2]
diameter of zone of inhibition ([1]; 0.1 μg hβD2 directly applied): 6 mm
diameter of zone of inhibition ([1]; 1 μg hβD2 directly applied): 9 mm
diameter of zone of inhibition ([1]; 5 μg hβD2 directly applied): 12 mm
diameter of zone of inhibition ([1]; 10 μg hβD2 directly applied): 15 mm
formation of a zone of inhibition ([1]; 10 μg hβD2 on alginic acid film): did not exhibit the formation of a zone of inhibition
formation of a zone of inhibition ([1]; 10 μg hβD2 on hyaluronic acid film): did not exhibit the formation of a zone of inhibition
bacteria killing ([2]; 2 μg hβD2 on collagen scaffold, after 13 hours): 18%
killing rate ([2]; 2 μg hβD2 on collagen scaffold, first 2 hours): ≤ 36%
killing rate ([2]; 4 μg hβD2 and 5 μg chondroitin sulphate on collagen scaffold, 0-2 hours): 54%
killing ([2]; 4 μg hβD2 and 20 μg spermidine on collagen scaffold, 0-2 hours): 19%
killing rate ([2]; 4 μg hβD2 on collagen scaffold impregnated with 20 μl of 0.1 M L-glutamic acid solution, 0-2 hours): 53%
killing rate ([2]; 4 μg hβD2 on collagen scaffold impregnated with 20 μl of 0.1 M L-lysine solution, 0-2 hours): 11%
killing ([2]; 4 μg hβD2 on collagen scaffold pre-treated with 10 μl of 0.1% gelatine solution, 0-2 hours): 94%
killing rate ([2]; 4 μg hβD2 on collagen scaffold treated with 5 μg BSA, 0-2 hours): 98%
killing of the bacteria ([2]; 4 μg hβD2 on collagen scaffold treated with 5 μg HAS, 0-2 hours): 100%
killing rate ([2]; 4 μg hβD2 on collagen scaffold treated with 60 μg poly-L-glutamic acid, 0-2 hours): 23%
killing rate ([2]; 4 μg hβD2 on collagen scaffold without pre-treatment, first 2 hours): 89% and 86%
killing ([2]; 4 μg hβD2 on collagen scaffold, 17th hour): 25%
bio-activity of the scaffolds ([2]; 4 μg hβD2 on collagen scaffold, after 20 hours): depleted
killing (given as release amount in %) ([2]; 4 μg hβD2 on collagen scaffold, first 5 hours): 38%
bacteria killing ([2]; 25 μg hβD2 on polylactide matrix coated with collagen and chondroitin sulphate, first two hours): 89%
bacteria killing ([2]; 25 μg hβD2 on polylactide matrix coated with collagen, first two hours): 100%
bacteria killing ([2]; 25 μg hβD2 on uncoated polylactide matrix, first two hours): 100%
killing ([2]; 30 μg hβD2 on collagen scaffold, after 13 hours): 29%
killing rate ([2]; 30 μg hβD2 on collagen scaffold, after 17 hours): 22%
activity of the scaffold ([2]; 30 μg hβD2 on collagen scaffold, after 20 hours): inactive
killing rate ([2]; 30 μg hβD2 on collagen scaffold, first 5 hours): 86%
killing (given as release amount in %) ([2]; 125 μg hβD2 on collagen scaffold, after 5 hours): 93%

From US20110311601A1, “ANTIMICROBIAL MEDICAL DEVICES” (priority 2010, published 2011)
